Key:
johnsongrass = assay: Test C preemergence; type: in vivo, Sorghum halepense; conditions: for Johnsongrass plant response rating: scale 0 to 100 (0 no effect, 100 complete control)
Source text: (§1) Seeds of plant species selected from blackgrass (Alopecurus myosuroides), ryegrass, Italian (Italian ryegrass, Lolium multiflorum), wheat (winter wheat, Triticum aestivum), galium (catchweed bedstraw, Galium aparine), corn (Zea mays), crabgrass, large (large crabgrass, Digitaria sanguinalis), foxtail, giant (giant foxtail, Setaria faberii), johnsongrass (Sorghum halepense), lambsquarters (Chenopodium album), morningglory (Ipomoea coccinea), nutsedge, yellow (yellow nutsedge, Cyperus esculentus), pigweed (redroot pigweed, Amaranthus retroflexus), ragweed (common ragweed, Ambrosia elation), soybean (Glycine max), barnyardgrass (Echinochloa crus-galli), oilseed rape (Brassica napus), waterhemp (common waterhemp, Amaranthus rudis), oat, wild (wild oat, Avena fatua), kochia (Kochia scoparia), Surinam grass (Brachiaria decumbens), foxtail, green (green foxtail, Setaria viridis), goosegrass (Eleusine indica), bromegrass, downy (downy bromegrass, Bromus tectorum), nightshade (eastern black nightshade, Solanum ptycanthum), cocklebur (common cocklebur, Xanthium strumarium), cupgrass, woolly (woolly cupgrass, Eriochloa villosa), bermudagrass (Cynodon dactylon), sunflower, (common oilseed sunflower, Helianthus annuus), Russian thistle (Salsola kali), and velvetleaf (Abutilon theophrasti) were planted into a blend of loam soil and sand and treated preemergence with test chemicals formulated in a non-phytotoxic solvent mixture which included a surfactant.
(§2) At the same time, plants selected from these crop and weed species and also chickweed (common chickweed, Stellaria media), canarygrass (littleseed canarygrass, Phalaris minor), and deadnettle (henbit deadnettle, Lamium amplexicaule), were planted in pots containing Redi-Earth® planting medium (Scotts Company, 14111 Scottslawn Road, Marysville, Ohio 43041) comprising spaghnum peat moss, vermiculite, wetting agent and starter nutrients and treated with postemergence applications of test chemicals formulated in the same manner. Plants ranged in height from 2 to 18 cm (1- to 4-leaf stage) for postemergence treatments. Treated plants and controls were maintained in a greenhouse for 13 to 15 days, after which time all species were compared to controls and visually evaluated. Plant response ratings, summarized in Table C, are based on a scale of 0 to 100 where 0 is no effect and 100 is complete control. A dash (-) response means no test result.

morningglory = assay: Test C preemergence; type: in vivo, Ipomoea coccinea; conditions: for Morningglory plant response rating: scale 0 to 100 (0 no effect, 100 complete control)
Source text: as §1, §2

foxtail, giant = assay: Test A preemergence; type: in vivo, Setaria faberii; conditions: preemergence
Method in brief: (§3)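 Pre- and postemergence greenhouse test; loam+sand; cpd in non-phytotox. solvent/surfactant; post at 1–2 leaf, 2–10 cm; visual score ~10 d, 0 = none, 100 = complete control.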

velvetleaf = assay: Test C preemergence; type: in vivo, Abutilon theophrasti; conditions: for Velvetleaf plant response rating: scale 0 to 100 (0 no effect, 100 complete control)
Source text: as §1, §2

waterhemp = assay: Test C preemergence; type: in vivo, Amaranthus rudis; conditions: for Waterhemp plant response rating: scale 0 to 100 (0 no effect, 100 complete control)
Source text: as §1, §2

barnyardgrass = assay: Test C preemergence; type: in vivo, Echinochloa crus-galli; conditions: for Barnyardgrass plant response rating: scale 0 to 100 (0 no effect, 100 complete control)
Source text: as §1, §2

corn [1] = assay: Test C preemergence; type: in vivo, Zea mays; conditions: for Corn plant response rating: scale 0 to 100 (0 no effect, 100 complete control)
Source text: as §1, §2

pigweed [2] = assay: Test C preemergence; type: in vivo, Amaranthus retroflexus; conditions: for Pigweed plant response rating: scale 0 to 100 (0 no effect, 100 complete control)
Source text: as §1, §2

wheat [3] = assay: Test A postemergence; type: in vivo, Triticum aestivum
Method in brief: as §3

pigweed [4] = assay: Test A preemergence; type: in vivo, Amaranthus retroflexus; conditions: preemergence
Method in brief: as §3

wheat [5] = assay: Test C preemergence; type: in vivo, Triticum aestivum; conditions: for Wheat plant response rating: scale 0 to 100 (0 no effect, 100 complete control)
Source text: as §1, §2

crabgrass, large = assay: Test C preemergence; type: in vivo, Digitaria sanguinalis; conditions: for Crabgrass, Large plant response rating: scale 0 to 100 (0 no effect, 100 complete control)
Source text: as §1, §2

corn [6] = assay: Test A preemergence; type: in vivo, Zea mays; conditions: preemergence
Method in brief: as §3

[7] = preemergence, 31 g ai/ha, visual rating, 13 to 15 days
[8] = preemergence, 62 g ai/ha, 13 to 15 days
[9] = preemergence, 125 g ai/ha, 13 to 15 days, scale 0 to 100, 0 = no effect, 100 = complete control
[10] = 125 g ai/ha, visual injury, 0 to 100 scale, approx. 10 days
[11] = 500 g ai/ha, visual injury after approx. 10 days, 0 to 100 scale (0 no effect, 100 complete control)
[12] = Postemergence, 500 g ai/ha, 0 to 100 scale (0 no effect, 100 complete control)
[13] = postemergence, 125 g ai/ha, about 10 days, visual rating on 0 to 100 scale (0 no effect, 100 complete control)
[14] = 125 g ai/ha, visual injury approx. 10 days after treatment

SMILES: CCOc1cc(C(=O)NC2CC2)nn1Cc1ccnc(OC(F)F)c1 [Compound 133]
- Plant response rating (scale of 0 to 100), Johnsongrass (johnsongrass; Preemergence, 250 g ai/ha): 98
- Johnsongrass plant response rating (johnsongrass; [7]): 40
- Johnsongrass plant response rating (johnsongrass; [8]): 85
- Plant response rating, Johnsongrass (johnsongrass; [9]): 90
- Plant response rating (scale of 0 to 100), Morningglory (morningglory; Preemergence, 250 g ai/ha): 100
- Morningglory plant response rating (morningglory; [7]): 75
- Morningglory plant response rating (morningglory; [8]): 100
- Plant response rating, Morningglory (morningglory; [9]): 100
- Foxtail, Giant plant response rating (foxtail, giant; [10]): 100
- Foxtail, Giant plant response rating (foxtail, giant; [11]): 100
- Plant response rating (scale of 0 to 100), Velvetleaf (velvetleaf; Preemergence, 250 g ai/ha): 100
- Velvetleaf plant response rating (velvetleaf; [7]): 35
- Velvetleaf plant response rating (velvetleaf; [8]): 55
- Plant response rating, Velvetleaf (velvetleaf; [9]): 100
- Plant response rating (scale of 0 to 100), Waterhemp (waterhemp; Preemergence, 250 g ai/ha): 100
- Waterhemp plant response rating (waterhemp; [7]): 85
- Waterhemp plant response rating (waterhemp; [8]): 100
- Plant response rating, Waterhemp (waterhemp; [9]): 100
- Plant response rating (scale of 0 to 100), Barnyardgrass (barnyardgrass; Preemergence, 250 g ai/ha): 100
- Barnyardgrass plant response rating (barnyardgrass; preemergence, 31 g ai/ha, 13 to 15 days): 65
- Barnyardgrass plant response rating (barnyardgrass; [8]): 60
- Plant response rating, Barnyardgrass (barnyardgrass; [9]): 100
- Plant response rating (scale of 0 to 100), Corn (corn [1]; Preemergence, 250 g ai/ha): 95
- Corn plant response rating (corn [1]; [7]): 5
- Corn plant response rating (corn [1]; [8]): 25
- Plant response rating, Corn (corn [1]; [9]): 45
- Plant response rating (scale of 0 to 100), Pigweed (pigweed [2]; Preemergence, 250 g ai/ha): 100
- Pigweed plant response rating (pigweed [2]; [7]): 100
- Pigweed plant response rating (pigweed [2]; [8]): 75
- Plant response rating, Pigweed (pigweed [2]; [9]): 100
- Wheat plant response rating (wheat [3]; [12]): 90
- Wheat plant response rating (wheat [3]; [13]): 40
- Pigweed plant response rating (pigweed [4]; [10]): 100
- Pigweed plant response rating (pigweed [4]; [11]): 100
- Plant response rating (scale of 0 to 100), Wheat (wheat [5]; Preemergence, 250 g ai/ha): 90
- Wheat plant response rating (wheat [5]; [7]): 0
- Wheat plant response rating (wheat [5]; [8]): 45
- Plant response rating, Wheat (wheat [5]; [9]): 90
- Plant response rating (scale of 0 to 100), Crabgrass, Large (crabgrass, large; Preemergence, 250 g ai/ha): 100
- Crabgrass, Large plant response rating (crabgrass, large; [7]): 100
- Crabgrass, Large plant response rating (crabgrass, large; [8]): 100
- Plant response rating, Crabgrass, Large (crabgrass, large; [9]): 100

SMILES: CCCc1cc(C(=O)NCC(F)(F)F)nn1Cc1cc(C(F)(F)F)nn1C [Compound 138]
- Foxtail, Giant plant response rating (foxtail, giant; [10]): 100
- Foxtail, Giant plant response rating (foxtail, giant; [11]): 100
- Corn plant response rating (corn [6]; [10]): 10
- Corn plant response rating (corn [6]; [11]): 90
- Wheat plant response rating (wheat [3]; [12]): 90
- Wheat plant response rating (wheat [3]; [13]): 80
- Pigweed plant response rating (pigweed [4]; [10]): 100
- Pigweed plant response rating (pigweed [4]; [11]): 100

SMILES: CCc1cc(C(=O)NCC(F)(F)F)nn1Cc1cc(OC(F)F)nn1C [Compound 206]
- Foxtail, Giant plant response rating (0 to 100 scale) (foxtail, giant; [14]): 0
- Foxtail, Giant plant response rating (foxtail, giant; [11]): 100
- Wheat plant response rating (wheat [3]; Postemergence, 125 g ai/ha, 0 to 100 scale, 0 no effect, 100 complete control): 10
- Wheat plant response rating (wheat [3]; [12]): 20
- Pigweed plant response rating (0 to 100 scale) (pigweed [4]; [14]): 90
